Source: patent US20200253877A1, “GEMCABENE, PHARMACEUTICALLY ACCEPTABLE SALTS THEREOF, COMPOSITIONS THEREOF AND METHODS OF USE THEREFOR” (NEUROBO PHARMACEUTICALS, INC., priority 2018, published 2020)

Legend:
[1] = tested on: hepatic mRNA expression in STAM™ mice; assay: Murine STAM model of NASH-HCC: hepatic gene expression by quantitative RT-PCR; assay type: in vivo, mouse
Method: A study was performed to evaluate the efficacy of gemcabene calcium salt hydrate Crystal Form 1 having a PSD90 of 52 μm as measured by laser light diffraction, in treating non-alcoholic steatosis hepatitis (NASH) in the murine STAM™ model of NASH-HCC.
Briefly, two-day old neonatal C57BL/6 male mice were administered low-dose streptozotocin (STZ), and were subsequently fed a HFC diet from 4 weeks of age. In this model, the mice typically develop liver steatosis and diabetes, reaching steatohepatitis within 3 weeks, followed by cirrhosis within 8 weeks, and carcinoma within 16 weeks. In the current study, mice were administered daily oral gemcabene calcium salt hydrate Crystal Form 1 starting at week 6 of age and were sacrificed at week 9. […] These STAM™ groups were orally administered from week 6 one of the following: water-vehicle, gemcabene calcium salt hydrate Crystal Form 1 at 30, 100 and 300 mg/kg daily, or telmisartan ([…]®) 10 mg/kg daily. […] All groups were sacrificed at week 9. Vehicle, gemcabene calcium salt hydrate Crystal Form 1, or telmisartan were administered by oral gavage once daily.
Various gene expression markers of liver metabolism were evaluated by Real-Time PCR (RT-PCR) in all mouse groups. Total RNA was extracted from liver samples using RNAiso (Takara Bio, Japan) according to the manufacturer's instructions. […] of RNA was reverse-transcribed using a reaction mixture containing 4.4 mM MgCl2 (F. Hoffmann-La Roche, Switzerland), 40 U RNase inhibitor (Toyobo, Japan), 0.5 mM dNTP (Promega, USA), 6.28 μM random hexamer (Promega), 5×first strand buffer (Promega), 10 mM dithiothreitol (Invitrogen, USA) and 200 U MMLV-RT (Invitrogen) in a final volume of 20 μL. The reaction was carried out for 1 hour at 37° C., followed by 5 minutes at 99° C. Real-time PCR was performed using real-time PCR DICE and SYBR premix Taq (Takara Bio). To calculate the relative mRNA expression level, the expression of each gene was normalized to that of reference gene 36B4 (gene symbol: RplpO). Information of PCR-primer sets is described in Tables 37A-37C. Statistical analyses were performed using the Bonferroni Multiple Comparison Test on GraphPad Prism 6 (GraphPad Software Inc., USA). P values <0.05 were considered statistically significant. Results are expressed as mean±SD.
In order to calculate the relative mRNA expression level, the expression of each gene was normalized to that of the reference gene 36B4 (gene symbol: RplpO). The gene expression levels were measured by quantitative RT-PCR. Results were normalized with values for the vehicle-treated normal group. […] Gemcabene calcium salt hydrate Crystal Form 1 (PSD90=52 μm) modulated the mRNA expression of many hepatic genes that play a significant role in the liver homeostasis and injury.

[2] = tested on: STAM™ mice, a murine model of NASH-HCC; assay: Murine STAM model of NASH-HCC: whole blood, plasma and liver biochemistry
[3] = 10 mg/kg, n = 7, STAM mice, normalized to non-treated group
[4] = gemcabene Form 1 100 mg/kg, telmisartan 10 mg/kg
[5] = vs Vehicle in NASH group, gemcabene Form 1 100 and 300 mg/kg, telmisartan 10 mg/kg
[6] = 10 mg/kg PO QD, Day 18 after 8 hours of fasting, mean ± SD, n = 8
[7] = 10 mg/kg PO QD, at termination (Day 21), mean ± SD, n = 7

SMILES: CCCc1nc2c(C)cc(-c3nc4ccccc4n3C)cc2n1Cc1ccc(-c2ccccc2C(=O)O)cc1 [telmisartan, reference compound]
- ACC1 gene expression (mean ± SD) [1, 3]: 0.7 ± 0.1
- ACC2 gene expression (mean ± SD) [1, 3]: 0.3 ± 0.1
- ADH-4 gene expression (mean ± SD) [1, 3]: 0.6 ± 0.2
- ANGPTL3 gene expression (mean ± SD) [1, 3]: 0.7 ± 0.2
- ANGPTL4 gene expression (mean ± SD) [1, 3]: 2.1 ± 0.3
- ANGPTL8 gene expression (mean ± SD) [1, 3]: 0.3 ± 0.1
- ApoC-III gene expression (mean ± SD) [1, 3]: 0.8 ± 0.2
- CCR2 gene expression (mean ± SD) [1, 3]: 2.4 ± 0.8
- CCR5 gene expression (mean ± SD) [1, 3]: 1.5 ± 0.3
- CRP gene expression (mean ± SD) [1, 3]: 0.9 ± 0.1
- CXCL1/KC gene expression (mean ± SD) [1, 3]: 0.6 ± 0.3
- Fetuin-A gene expression (mean ± SD) [1, 3]: 1.0 ± 0.1
- IL-1β gene expression (mean ± SD) [1, 3]: 0.7 ± 0.2
- IL-6 gene expression (mean ± SD) [1, 3]: 0.8 ± 0.4
- LDL receptor gene expression (mean ± SD) [1, 3]: 0.7 ± 0.3
- LPL gene expression (mean ± SD) [1, 3]: 2.4 ± 0.5
- MCP-1 gene expression (mean ± SD) [1, 3]: 2.1 ± 1.0
- MIP-1β gene expression (mean ± SD) [1, 3]: 3.9 ± 1.5
- MMP-2 gene expression (mean ± SD) [1, 3]: 1.4 ± 0.7
- NF-κB gene expression (mean ± SD) [1, 3]: 1.1 ± 0.1
- PNPLA3 gene expression (mean ± SD) [1, 3]: 0.1 ± 0.0
- SCD1 gene expression (mean ± SD) [1, 3]: 0.1 ± 0.0
- SREBP-1 gene expression (mean ± SD) [1, 3]: 0.7 ± 0.2
- Sulf-2 gene expression (mean ± SD) [1, 3]: 3.9 ± 0.9
- TIMP-1 gene expression (mean ± SD) [1, 3]: 8.6 ± 5.1
- TNF-α gene expression (mean ± SD) [1, 3]: 3.0 ± 1.2
- α-SMA gene expression (mean ± SD) [1, 3]: 2.3 ± 0.7
- LDL receptor gene expression ([1]; STAM mice): no effect
- ACC-1 mRNA expression (relative, mean±SD) [1, 4]: 0.7±0.1
- ADH-4 mRNA expression (relative, mean±SD) [1, 4]: 0.6±0.2
- CCR2 mRNA expression (relative, mean±SD) [1, 4]: 2.4±0.8
- CCR5 mRNA expression (relative, mean±SD) [1, 4]: 1.5±0.3
- CRP mRNA levels (relative, mean±SD) [1, 4]: No significant differences
- MCP-1 mRNA expression (relative, mean±SD) [1, 4]: 2.1±1.0
- MIP-1β mRNA levels (relative, mean±SD) [1, 4]: 3.9±1.5
- hepatic LPL mRNA expression levels ([1]; vs Vehicle in NASH group, gemcabene Form 1 30, 100 and 300 mg/kg, telmisartan 10 mg/kg): no significant difference
- ANGPTL4 mRNA expression levels [1, 5]: significant down-regulations
- IL-6 mRNA expression level [1, 5]: significant down-regulations
- Fasting blood glucose [2, 6]: 742 ± 90 mg/dL
- Plasma insulin [2, 6]: 0.16 ± 0.04 ng/mL
- Liver free fatty acid [2, 7]: 46.8 ± 10.7 pEq/g liver
- Liver hydroxyproline [2, 7]: 0.91 ± 0.12 μg/mg total protein
- Liver triglyceride [2, 7]: 31.7 ± 6.4 mg/g liver
- Non-fasting blood glucose [2, 7]: 856 ± 62 mg/dL
- Plasma ApoC-III [2, 7]: 6.2 ± 0.7 gg/mL
- Plasma CRP [2, 7]: 3.0 ± 0.4 gg/mL
- Plasma adiponectin [2, 7]: 6.8 ± 0.9 gg/mL
- Plasma alanine aminotransferase [2, 7]: 39 ± 15 U/L
- Plasma alkaline phosphatase [2, 7]: 567 ± 104 U/L
- Plasma aspartate aminotransferase [2, 7]: 121 ± 38 U/L
- Plasma blood urea nitrogen [2, 7]: 85.0 ± 17.4 mg/dL
- Plasma creatinine [2, 7]: 0.1 ± 0.0 mg/dL
- Plasma gamma-glutamyl transferase [2, 7]: 1 ± 0 U/L
- Plasma ketone body [2, 7]: 8.11 ± 3.27 m M
- Plasma leptin [2, 7]: 2.9 ± 1.1 ng/mL
- Plasma total bilirubin [2, 7]: 0.3 ± 0.1 mg/dL
- Plasma total cholesterol [2, 7]: 208 ± 19 mg/dL
- Plasma triglyceride [2, 7]: 569 ± 256 mg/dL
- fasting whole blood glucose concentrations ([2]; 3 days prior to termination, 8 h fasting, vs vehicle-treated STAM mice, gemcabene Form 1 30, 100, 300 mg/kg, telmisartan 10 mg/kg, oral daily wk 6-9): significant increase
- plasma ALP levels ([2]; at termination, vs vehicle-treated NASH group, gemcabene Form 1 100 and 300 mg/kg, telmisartan 10 mg/kg): significant increases
- whole blood glucose levels ([2]; at termination, vs vehicle-treated STAM mice, gemcabene Form 1 30, 100, 300 mg/kg, telmisartan 10 mg/kg): significant increase
- plasma BUN levels ([2]; at termination, vs vehicle-treated STAM mice, telmisartan 10 mg/kg): significant increase
- plasma triglyceride concentrations ([2]; vs vehicle-treated STAM mice, gemcabene Form 1 30, 100, 300 mg/kg (dose-dependent manner), telmisartan 10 mg/kg): no significant difference
- liver triglyceride content ([2]; vs vehicle-treated STAM mice, gemcabene Form 1 30, 100, 300 mg/kg, telmisartan 10 mg/kg): significant decrease
- plasma total cholesterol concentrations ([2]; vs vehicle-treated STAM mice, gemcabene Form 1 100 and 300 mg/kg, telmisartan 10 mg/kg): significant increases
